Experimental data: US20250333397A1 (REMIX THERAPEUTICS INC., priority 2021, published 2025)
Like-named read-outs stand apart in the source and are kept apart here.

Key:
Type in all cases: cell-based, human
HTT mRNA = assay: RT-qPCR splicing assay, HTT canonical (CJ) and alternative (AJ) junction mRNA; settings: Homo sapiens; for AC50: read-out: HTT AJ (AC50, increase in AJ mRNA)
In short: (§1)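 Cells: A673 (DMEM/10% FBS, plated 24 h before) or K562 (IMDM/10% FBS). Dosing: 11-pt 3-fold series, 10 uM top final, ≤0.25% DMSO, 24 h, 37 °C/5% CO2. Readout: RT-qPCR of CJ and AJ junctions, housekeeper-normalized, RQ = 2^(-ΔΔCt) vs DMSO.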

MYB mRNA = assay: RT-qPCR splicing assay, MYB canonical (CJ) and alternative (AJ) junction mRNA; settings: Homo sapiens; for AC50: read-out: MYB AJ (AC50, increase in AJ mRNA)
In short: as §1

SMN2 mRNA = assay: RT-qPCR splicing assay panel, SMN2 canonical junction (CJ) mRNA; settings: Homo sapiens, canonical junction (CJ) mRNA, RT-qPCR panel, Table 4A; read-out: SMN2, decrease in CJ mRNA levels, IC50
In short: as §1

Target C mRNA = assay: RT-qPCR splicing assay panel, Target C canonical junction (CJ) mRNA; settings: Homo sapiens, canonical junction (CJ) mRNA, RT-qPCR panel, Table 4A; read-out: Target C, decrease in CJ mRNA levels, IC50
In short: as §1

[1] = 24 h, Table 3A, A673 or K562 cells, 24 h treatment
[2] = 24 h, Table 3A, A673 or K562 cells, 24 h treatment, read-out: HTT CJ (IC50, decrease in CJ mRNA)
[3] = canonical junction (CJ) mRNA, RT-qPCR panel, Table 4A, read-out: HTT, decrease in CJ mRNA levels, IC50
[4] = 24 h, Table 3A, A673 or K562 cells, 24 h treatment, read-out: MYB CJ (IC50, decrease in CJ mRNA)
[5] = canonical junction (CJ) mRNA, RT-qPCR panel, Table 4A, read-out: MYB, decrease in CJ mRNA levels, IC50

Structure (SMILES)	AC50 (HTT mRNA; [1]) [nM]	IC50 (HTT mRNA; [2]) [nM]	IC50 (HTT mRNA; [3]) [nM]	AC50 (MYB mRNA; [1]) [nM]	IC50 (MYB mRNA; [4]) [nM]	IC50 (MYB mRNA; [5]) [nM]	IC50 (SMN2 mRNA) [nM]	IC50 (Target C mRNA) [nM]
COc1nc(-c2cnc(N3CCC(NC(C)(C)C)C3)nn2)ccc1-c1cnc(C)s1 (stereo not shown) [Compound 422]	< 100	< 100	< 100	100 to 1000	100 to 1000	100 to 1000	< 100	100 to 1000
COc1cc(-c2cc(O)c(-c3ccc(N4CC[C@@H](NC5CCC5)C4)nn3)cc2F)cnn1 [Compound 230, 2-{6-[(3R)-3-(cyclobutylamino)pyrrolidin-1-yl]pyridazin-3-yl}-4-fluoro-5-(6-methoxypyridazin-4-yl)phenol]	100 to 1000	100 to 1000	100 to 1000	1000 to 10000	1000 to 10000	1000 to 10000	< 100	1000 to 10000
Cc1nc(F)c(-c2cc(O)c(-c3ccc(N4CCC(NC5CCC5)C4)nn3)cc2F)s1 (stereo not shown) [Compound 378]	100 to 1000	100 to 1000	100 to 1000	1000 to 10000	1000 to 10000	1000 to 10000	100 to 1000	1000 to 10000
COc1cc(-c2cc(O)c(-c3ccc(N4CC[C@H](NC(C)(C)C)C4)nn3)cc2F)cnn1 [Compound 211, 2-{6-[(3S)-3-(tert-butylamino)pyrrolidin-1-yl]pyridazin-3-yl}-4-fluoro-5-(6-methoxypyridazin-4-yl)phenol]	100 to 1000	100 to 1000	100 to 1000	1000 to 10000	1000 to 10000	1000 to 10000	< 100	100 to 1000
Cc1cnc(-c2cc(O)c(-c3ccc(N4CCC(NC5CCC5)C4)nn3)cc2F)s1 (stereo not shown) [Compound 367]	> 10000	> 10000	> 10000	> 10000	> 10000	> 10000	1000 to 10000	> 10000
Cc1ncc(-c2ccc(-c3ccc(N4CC[C@H](N(C)C5CCC5)C4)nn3)c(O)c2)s1 [Compound 268]	1000 to 10000	100 to 1000	100 to 1000	> 10000	> 10000	> 10000	100 to 1000	> 10000
COc1cc(-c2ccc(-c3ccc(N4CCC(CNC5CCC5)C4)nn3)c(O)c2)cnn1 (stereo not shown) [Compound 348, 2-(6-{3-[(cyclobutylamino)methyl]pyrrolidin-1-yl}pyridazin-3-yl)-5-(6-methoxypyridazin-4-yl)phenol]	100 to 1000	< 100	< 100	1000 to 10000	100 to 1000	100 to 1000	< 100	100 to 1000
COc1cc(-c2ccc(-c3ccc(N4CCC(NC5CCC5)C4)nn3)c(O)c2)ccn1 (stereo not shown) [Compound 305]	100 to 1000	100 to 1000	100 to 1000	1000 to 10000	1000 to 10000	1000 to 10000	100 to 1000	1000 to 10000
Cc1ncc(-c2ccc(-c3ccc(N4CC[C@H](NCC5CC5)C4)nn3)c(O)c2)s1 [Compound 380, 2-{6-[(3S)-3-[(cyclopropylmethyl)amino]pyrrolidin-1-yl]pyridazin-3-yl}-5-(2-methyl-1,3-thiazol-5-yl)phenol]	< 100	< 100	< 100	< 100	< 100	< 100	< 100	< 100
COc1cc(-c2ccc(-c3ccc(N4CC[C@@H](N(C)C(C)(C)C)C4)nn3)c(O)c2)cnn1 [Compound 336, 2-{6-[(3R)-3-[tert-butyl(methyl)amino]pyrrolidin-1-yl]pyridazin-3-yl}-5-(6-methoxypyridazin-4-yl)phenol]	< 100	< 100	< 100	< 100	< 100	< 100	< 100	< 100
Cc1nnc(-c2cc(O)c(-c3ccc(N4CC[C@H](NCC5CC5)C4)nn3)cc2F)s1 [Compound 401]	100 to 1000	100 to 1000	100 to 1000	1000 to 10000	1000 to 10000	1000 to 10000	100 to 1000	100 to 1000
